Reference: article PMC3353862
Converted amounts (≈) assume the structure as drawn.

Assays:
H. influenzae = test: Broth microdilution MIC testing; assay type: cell-based, Haemophilus influenzae; settings: for MIC: Haemophilus influenzae, read-out: MIC H. flu; for MIC H. flu: H. influenzae
E. coli tolC mutants = test: Broth microdilution MIC testing; assay type: cell-based, Escherichia coli; settings: for MIC: Escherichia coli, read-out: MIC E. coli tolC; for MIC E. coli tolC: E. coli tolC mutants
M. catarrhalis = test: Broth microdilution MIC testing; assay type: cell-based, Moraxella catarrhalis; settings: for MIC: Moraxella catarrhalis
S. aureus = test: Broth microdilution MIC testing; assay type: cell-based, Staphylococcus aureus; settings: for MIC: Staphylococcus aureus, read-out: MIC S. aureus
[1] = tested on: bacterial protein synthesis (aminoacylation/translation system); test: aminoacylation/translation (A/T) assay; assay type: biochemical; settings: for IC50: A/T assay, Table 1, read-out: IC50; for fold improvement in the IC50: relative to the original two compounds
E. faecalis = test: Broth microdilution MIC testing; assay type: cell-based, Enterococcus faecalis; settings: for MIC: Enterococcus faecalis, read-out: MIC E. fae; for MIC E. fae: E. faecalis
S. pneumoniae = test: Broth microdilution MIC testing; assay type: cell-based, Streptococcus pneumoniae; settings: for MIC: Streptococcus pneumoniae, read-out: MIC S. pneumo; for MIC S. pneumo: S. pneumoniae
[2] = tested on: E. coli modified with PMBN; test: Broth microdilution MIC testing; assay type: cell-based, Escherichia coli; settings: for MIC: Escherichia coli, read-out: MIC E. coli +PMBP; for MIC E. coli +PMBP: E. coli modified with PMBN
panel of bacteria = test: Antibacterial activity against the panel of bacteria (MIC, overall); assay type: cell-based; settings: for antibacterial activity: panel of bacteria; as to MIC (antibacterial activity grade): key: +: poor; ++: moderate; +++: good antibacterial activity

| Compound | MIC (H. influenzae) | MIC (E. coli tolC mutants) | MIC (M. catarrhalis) | MIC (S. aureus) | IC50 [1] | MIC (E. faecalis) | MIC (S. pneumoniae) | MIC [2] | antibacterial activity (panel of bacteria) | MIC H. flu (H. influenzae) | MIC E. coli tolC (E. coli tolC mutants) | MIC M. cat (M. catarrhalis) | MIC S. aureus (S. aureus) | MIC E. fae (E. faecalis) | MIC S. pneumo (S. pneumoniae) | MIC E. coli +PMBP [2] | MIC (antibacterial activity grade) (panel of bacteria; Table 3) | further results |
| --- | --- | --- | --- | --- | --- | --- | --- | --- | --- | --- | --- | --- | --- | --- | --- | --- | --- | --- |
| Oc1cccc(CN2CCc3nc(-c4ccccn4)nc(O)c3C2)c1 [Compound 321526] | > 128 µg/mL | > 128 µg/mL | 64 µg/mL (≈ 191 µM) | > 128 µg/mL | 3.5 µM | > 128 µg/mL | > 128 µg/mL | > 128 µg/mL | little or no anti-bacterial activity |  |  |  |  |  |  |  |  |  |
| CCN(CC)Cc1cc(CN2CCc3nc(-c4ccccn4)[nH]c(=O)c3C2)ccc1OC [Compound 323193] |  |  |  |  | 4.1 µM |  |  |  | all antibacterial activity was lost | > 128 µg/mL | > 128 µg/mL | > 128 µg/mL | > 128 µg/mL | > 128 µg/mL | > 128 µg/mL | > 128 µg/mL |  |  |
| COc1cc(CN2CCc3nc(-c4ccccn4)[nH]c(=O)c3C2)ccc1OCC(N)=O [Compound 323200] |  |  |  |  | 0.4 µM |  |  |  | MIC was above maximum testing concentrations for the entire panel of bacteria | > 128 µg/mL | > 128 µg/mL | > 128 µg/mL | > 128 µg/mL | > 128 µg/mL | > 128 µg/mL | > 128 µg/mL |  | fold improvement in the IC50 [1]: three to sevenfold |
| CN(C)Cc1ccc(CN2CCc3nc(-c4ccccn4)[nH]c(=O)c3C2)cc1 [Compound 323201] |  |  |  |  | 2.1 µM |  |  |  | all antibacterial activity was lost | > 128 µg/mL | > 128 µg/mL | > 128 µg/mL | > 128 µg/mL | > 128 µg/mL | > 128 µg/mL | > 128 µg/mL |  |  |
| CN(C)c1ccc(CN2CCc3nc(-c4ccccn4)[nH]c(=O)c3C2)cc1 [Compound 323218] |  |  |  |  | 0.24 µM |  |  |  |  | 16 µg/mL (≈ 44.3 µM) | 128 µg/mL (≈ 354 µM) | 4 µg/mL (≈ 11.1 µM) | > 128 µg/mL | > 128 µg/mL | 32 µg/mL (≈ 88.5 µM) | 64 µg/mL (≈ 177 µM) |  | fold improvement in the IC50 [1]: five and tenfold; MIC (antibacterial activity grade) (panel of bacteria; Table 2): + |
| COc1cc(CN2CCc3nc(-c4ccccn4)[nH]c(=O)c3C2)cc(OC)c1OC [Compound 323221] |  |  |  |  | > 300 µM |  |  |  | abolished both biochemical and microbiological activities | > 128 µg/mL | > 128 µg/mL | > 128 µg/mL | > 128 µg/mL | > 128 µg/mL | > 128 µg/mL | > 128 µg/mL |  | biochemical activity in the A/T assay [1]: abolished both biochemical and microbiological activities |
| O=c1[nH]c(-c2ccccn2)nc2c1CN(Cc1cc3c(cc1Cl)OCO3)CC2 [Compound 323227] |  |  |  |  | 0.37 µM |  |  |  |  | 32 µg/mL (≈ 80.6 µM) | 64 µg/mL (≈ 161 µM) | 8 µg/mL (≈ 20.2 µM) | > 128 µg/mL | > 128 µg/mL | 64 µg/mL (≈ 161 µM) | > 128 µg/mL |  | fold improvement in the IC50 [1]: three to sevenfold; MIC (antibacterial activity grade) (panel of bacteria; Table 2): + |
| O=c1[nH]c(-c2ccccn2)nc2c1CN(Cc1cc(F)ccc1F)CC2 [Compound 323228] |  |  |  |  | 0.3 µM |  |  |  |  | 4 µg/mL (≈ 11.3 µM) | 16 µg/mL (≈ 45.2 µM) | 0.5 µg/mL (≈ 1.41 µM) |  | 64 µg/mL (≈ 181 µM) | 8 µg/mL (≈ 22.6 µM) | 16 µg/mL (≈ 45.2 µM) |  | MIC (antibacterial activity grade) (panel of bacteria; Table 2): ++ |
| CC(C)Oc1cccc(CN2CCc3nc(-c4ccccn4)[nH]c(=O)c3C2)c1 [Compound 323229] |  |  |  |  | 0.53 µM |  |  |  |  | 8 µg/mL (≈ 21.3 µM) | 16 µg/mL (≈ 42.5 µM) | 0.5 µg/mL (≈ 1.33 µM) | 64 µg/mL (≈ 170 µM) | 64 µg/mL (≈ 170 µM) | 8 µg/mL (≈ 21.3 µM) | 16 µg/mL (≈ 42.5 µM) |  | MIC (antibacterial activity grade) (panel of bacteria; Table 2): ++ |
| Oc1nc(-c2ccccn2)nc2c1CCN(Cc1ccc(Cl)cc1)C2 [Compound 323338] | 2 µg/mL (≈ 5.67 µM) | 4 µg/mL (≈ 11.3 µM) | ≤ 0.12 µg/mL | 16 µg/mL (≈ 45.3 µM) | 64.4 µM | 16 µg/mL (≈ 45.3 µM) | 4 µg/mL (≈ 11.3 µM) | 8 µg/mL (≈ 22.7 µM) |  |  |  |  |  |  |  |  | +++ |  |
| O=c1[nH]c(-c2ccccn2)nc2c1CN(Cc1cc(Cl)cc(Cl)c1)CC2 [Compound 323339] |  |  |  |  | 19 µM |  |  |  |  | 8 µg/mL (≈ 20.7 µM) | 2 µg/mL (≈ 5.16 µM) | ≤0.12 µg/mL | 32 µg/mL (≈ 82.6 µM) | 64 µg/mL (≈ 165 µM) | 4 µg/mL (≈ 10.3 µM) | 2 µg/mL (≈ 5.16 µM) | +++ |  |
| O=c1[nH]c(-c2ccccn2)nc2c1CN(Cc1cc(Cl)ccc1Cl)CC2 [Compound 323340] |  |  |  |  | > 300 µM |  |  |  | good antibacterial activity | 1 µg/mL (≈ 2.58 µM) | 1 µg/mL (≈ 2.58 µM) | ≤0.12 µg/mL | 4 µg/mL (≈ 10.3 µM) | 16 µg/mL (≈ 41.3 µM) | 2 µg/mL (≈ 5.16 µM) | 2 µg/mL (≈ 5.16 µM) | +++ | biochemical activity in the A/T assay [1]: no inhibitory effect |
| O=c1[nH]c(-c2ccccn2)nc2c1CN(Cc1ccc(Br)cc1)CC2 [Compound 323341] |  |  |  |  | 41.4 µM |  |  |  |  | 2 µg/mL (≈ 5.03 µM) | 8 µg/mL (≈ 20.1 µM) | ≤0.12 µg/mL | 16 µg/mL (≈ 40.3 µM) | 32 µg/mL (≈ 80.5 µM) | 4 µg/mL (≈ 10.1 µM) | 16 µg/mL (≈ 40.3 µM) | +++ |  |
| O=c1[nH]c(-c2ccccn2)nc2c1CN(Cc1ccc(Cl)c(Cl)c1)CC2 [Compound 323342] |  |  |  |  | 28.9 µM |  |  |  |  | 2 µg/mL (≈ 5.16 µM) | 4 µg/mL (≈ 10.3 µM) | ≤0.12 µg/mL | 32 µg/mL (≈ 82.6 µM) | 32 µg/mL (≈ 82.6 µM) | 2 µg/mL (≈ 5.16 µM) | 16 µg/mL (≈ 41.3 µM) | +++ |  |
| O=c1[nH]c(-c2ccccn2)nc2c1CN(Cc1ccc(Cl)cc1Cl)CC2 [Compound 323343] |  |  |  |  | 8.24 µM |  |  |  |  | 1 µg/mL (≈ 2.58 µM) | 4 µg/mL (≈ 10.3 µM) | ≤0.12 µg/mL | 8 µg/mL (≈ 20.7 µM) | 32 µg/mL (≈ 82.6 µM) | 2 µg/mL (≈ 5.16 µM) | 2 µg/mL (≈ 5.16 µM) | +++ |  |
| O=c1[nH]c(-c2ccccn2)nc2c1CN(Cc1cccc(Cl)c1Cl)CC2 [Compound 323344] |  |  |  |  | 11.6 µM |  |  |  |  | 4 µg/mL (≈ 10.3 µM) | 1 µg/mL (≈ 2.58 µM) | ≤0.12 µg/mL | 8 µg/mL (≈ 20.7 µM) | 32 µg/mL (≈ 82.6 µM) | 2 µg/mL (≈ 5.16 µM) | 4 µg/mL (≈ 10.3 µM) | +++ |  |
| Cn1c(-c2ccccn2)nc2c(c1=O)CN(Cc1ccc(Cl)cc1)CC2 [Compound 323345] | 64 µg/mL (≈ 174 µM) | 128 µg/mL (≈ 349 µM) | 32 µg/mL (≈ 87.2 µM) | > 128 µg/mL | > 300 µM | > 128 µg/mL | 128 µg/mL (≈ 349 µM) | 128 µg/mL (≈ 349 µM) | abolished most biochemical and antibacterial activities |  |  |  |  |  |  |  |  | biochemical activity in the A/T assay [1]: abolished most biochemical and antibacterial activities |
| Cc1nc(-c2nc3c(c(=O)[nH]2)CN(Cc2ccc(Cl)cc2)CC3)cs1 [Compound 323356] | 64 µg/mL (≈ 172 µM) | 128 µg/mL (≈ 343 µM) | 8 µg/mL (≈ 21.5 µM) | > 128 µg/mL | > 300 µM | 128 µg/mL (≈ 343 µM) | 128 µg/mL (≈ 343 µM) | > 128 µg/mL | slight antibacterial activity |  |  |  |  |  |  |  |  | biochemical activity in the A/T assay [1]: abolished all biochemical activity |
| O=C(Cc1ccc(Cl)cc1)N1CCc2nc(-c3ccccn3)[nH]c(=O)c2C1 [Compound 323369] | 16 µg/mL (≈ 42 µM) | 64 µg/mL (≈ 168 µM) | 4 µg/mL (≈ 10.5 µM) | 128 µg/mL (≈ 336 µM) | 2.01 µM | 64 µg/mL (≈ 168 µM) | 64 µg/mL (≈ 168 µM) | 32 µg/mL (≈ 84 µM) |  |  |  |  |  |  |  |  |  |  |
| Cc1cccc(-c2nc3c(c(=O)[nH]2)CN(Cc2ccc(Cl)cc2)CC3)n1 [Compound 332052] | > 64 µg/mL | > 128 µg/mL | 32 µg/mL (≈ 87.2 µM) | > 128 µg/mL | > 300 µM | > 128 µg/mL | > 128 µg/mL | > 128 µg/mL |  |  |  |  |  |  |  |  |  | biochemical activity in the A/T assay [1]: completely abolished activity |
| O=c1[nH]c(-c2ccco2)nc2c1CN(Cc1ccc(Cl)cc1)CC2 [Compound 332053] | > 64 µg/mL | > 128 µg/mL | > 128 µg/mL | > 128 µg/mL | > 300 µM | > 128 µg/mL | > 128 µg/mL | > 128 µg/mL |  |  |  |  |  |  |  |  |  | biochemical activity in the A/T assay [1]: abolished all biochemical activity |
| O=c1nc(-c2ccccn2)nc2ccn(Cc3ccc(Cl)cc3)cc1-2 [Compound 332055] | 16 µg/mL (≈ 45.9 µM) | 128 µg/mL (≈ 367 µM) | 32 µg/mL (≈ 91.7 µM) | > 128 µg/mL | 16.4 µM | 64 µg/mL (≈ 183 µM) | 128 µg/mL (≈ 367 µM) | 64 µg/mL (≈ 183 µM) |  |  |  |  |  |  |  |  |  |  |
| O=c1[nH]c(-c2cccs2)nc2c1CN(Cc1ccc(Cl)cc1)CC2 [Compound 332057] | > 128 µg/mL | > 128 µg/mL | > 128 µg/mL | > 128 µg/mL | 101 µM | > 128 µg/mL | > 128 µg/mL | > 128 µg/mL |  |  |  |  |  |  |  |  |  | fold reduction of potency/biochemical activity in the A/T assay ([1]; relative to 321521): over 40 fold |
